In patent US12558326B2, “Method for treating epilepsy” (Xenon Pharmaceuticals Inc., priority 2018, dated 2026):
Several values for one entry are separate records, joined by “and”; a condition that tells them apart may be missing. Equal values may be shown once.

What was measured:
CF-1 mice = assay: 6 Hz seizure test (44 mA, 3 sec, corneal electrodes) in vivo; design: species or system mouse; conditions: 20 mg/kg IP; for percentage of animals protected against psychomotor seizures: one hour before assay, 6 Hz 44 mA, n=16 per group
From the text: This assay tests the ability of a test compound to block a psychomotor seizure induced by long-duration, low frequency (6 Hz) stimulation, and provides an art-accepted model of therapy-resistant partial seizure (Brown et al., 1953 J. Pharmacol. Exp. Therapeut. 107(3):273-283; White H S, Woodhead J H, Wilcox K S, General principles: discovery and preclinical development of antiepileptic drugs, In: Levy R H, Mattson R H, Meldrum B S, Perucca E, editors. Antiepileptic drugs 5th ed Philadelphia: Lippincott Williams & Wilkins; 2002. pp. 36-48; Hartman et al., 2008 Epilepsia 49(2):334-339).
Methods. Adult male CF1 mice (18-25 g) are pretreated intraperitoneally (i.p.) with the test compound at a dose of 20-100 mg/kg. If toxicity is noted in a pre-test screen for toxic effects when the test compound is administered i.p. at varying dosages, the dose is modified to avoid overt toxic effects. Each treatment group (n=4-16 mice/group) is examined for anticonvulsive effects at one or more of five time points (¼, ½, 1, 2, and 4 hr) after treatment with the test compound. Following pretreatment, each mouse receives a drop of 0.5% tetracaine hydrochloride applied to each eye. The mouse is then challenged with low-frequency (6 Hz) stimulation for 3 sec delivered through corneal electrodes. The low-frequency, long-duration stimuli are initially delivered at 32 mA intensity. Animals are manually restrained and released immediately following the stimulation and observed for the presence or absence of seizure activity. If the test compound is effective in the 32 mA screen, an additional assay is performed in which the stimulation current is increased to 44 mA but otherwise using the same protocol as described above. For dose-response studies, an n of 8 mice is used per dose and a dose-response curve is generated at the time of peak effect (TPE) at the specific stimulation intensity.
Typically, the 6 Hz stimulation results in a seizure characterized by a minimal clonic phase that is followed by stereotyped, automatistic behaviors, including jaw clonus, forelimb clonus, twitching of the vibrissae, and/or Straub-tail. Animals not displaying such behaviors are considered protected. Seizure score can be used as an additional measure of the efficacy of the investigational compound (Racine, R. J. 1972 Electroencephalogr. Clin. Neurophysiol. 32(3):281-294). Data are analyzed by Mann-Whitney U test, with p<0.05 determined to be statistically significant. For data obtained at each time point, results are expressed as the total number of animals protected out of the number of animals tested over time (e.g., 2/4 represents 2 out of 4 mice tested are protected).
In this Example, the in vivo anticonvulsant effects of candidate AEDs were tested in mice using the 6 Hz seizure test. The 6 Hz seizure test was performed essentially as described above in Biological Example 2, with minor modifications as presented here, including data collection at a time point that was one hour after administration of the candidate AEDs.
Compounds: Candidate AED compounds were prepared as described above unless otherwise noted, and were as follows: • Racemic fenfluramine ([rac]-fenfluramine hydrochloride); • (R)-fenfluramine ([R]-(−)-fenfluramine hydrochloride); • Racemic norfenfluramine ([rac]-norfenfluramine) was purchased from Toronto Research Chemicals, North York, Ontario, Canada; • (R)-norfenfluramine ([R]-(−)-norfenfluramine.
Animals: Adult male CF-1 albino mice (25-35 g) purchased from Harlan-Envigo (East Millstone, NJ). The mice were housed four per cage and had access to filtered water and chow ad libitum, throughout the experiment.
Compound Preparation and Administration: All four compounds were solubilized in sterile aqueous saline solution (0.9% NaCl). Compounds were administered to animals (16 mice in each treatment group) via intraperitoneal (IP) injection at 10 ml/kg volume, one hour prior to the assay. Control animals received vehicle (saline) only. […]

[1] = Brain and plasma distribution after the 6 Hz assay (UHPLC-ESI-MS/MS); assay type: in vivo, mouse; conditions: 20 mg/kg IP, total concentration, sampled immediately after 6 Hz assay (one hour post dose)
Method: Pharmacological distribution and bioanalysis. Immediately following characterization of seizure behaviors in the 6 Hz assay, animals were humanely sacrificed and brain and plasma samples were collected for analysis of the distribution of the administered compounds to these tissue compartments.
Brain sample homogenization. Pre-weighed whole mouse brains were thawed and 1 mL of deionized water and 1 mL of acetonitrile were added to each sample vial containing brain tissue. The samples were homogenized using a hand-held Omni™ TH homogenizer (Omni International, Kennesaw, GA, USA) until a uniform slurry was obtained. 1 mL aliquots of the slurry were transferred to clean 1.5 mL plastic Eppendorf tubes and the tubes were centrifuged at 13,000 rpm (15,871×g) for 20 minutes. The supernatant was collected and stored in clean labelled plastic Eppendorf vials at −80° C.
Mouse plasma and brain homogenate sample preparation. Mouse brain homogenates and mouse plasma samples, as well as calibration standards and QC samples prepared from control (“blank”) untreated mouse plasma, were extracted by protein precipitation. Briefly, 50 μL of each brain homogenate and mouse plasma sample (as well as each calibration standard, QC sample and blank mouse plasma sample) was mixed with 50 μL of internal standard solution [a 2,500 ng/mL solution of (S)-5-((1-benzylpyrrolidin-3-yl)(methyl)amino)-6-methyl-N-(thiazol-4-yl)pyridine-2-sulfonamide in deionized water/acetonitrile (1:1 v/v)], followed by addition of 50 μL of 6% (v/v) phosphoric acid in water. This was followed by the addition of 200 μL of acetonitrile. The samples were vortexed for 30 seconds and then centrifuged for 20 min at 13,000 rpm (15,871×g). The supernatants were further diluted four-fold with acetonitrile:water (1:1 v/v) and transferred to a 96-well plate prior to analysis. Calibration and QC samples were prepared in blank K2EDTA mouse plasma in the concentration range from 2.3 ng/mL to 4800 ng/mL with QC samples, including low QC (14 ng/mL), mid QC (225 ng/mL), and high QC (3600 ng/mL).
UHPLC-ESI-MS/MS analysis. Samples were then analyzed by ultra-high pressure liquid chromatography/electrospray ionization tandem mass spectroscopy (UHPLC-ESI MS/MS) using a Sciex™ TQ-5500 (AB Sciex™ LP, Concord, ON, Canada) mass spectrometer equipped with a Shimadzu Nexera™ UHPLC pump, column compartment and auto-sampler (Shimadzu Scientific Instruments, Inc., Columbia, MD, USA), using a binary gradient elution starting with 80% water (A)/20% acetonitrile (B), both solvents containing 0.1% formic acid. After 0.6 minutes, mobile phase B was increased linearly to 100% to 1 minute and elution was maintained at 100% mobile phase B until 1.5 minutes, and then allowed to re-equilibrate at the initial ration of 80% mobile phase A and 20% mobile phase B for a total run time of 2.5 minutes at a flow rate of 0.4 mL/min. The column used was ACE Excel™ 2 C18-PFP (2.1 mm i.d.×[…], 2 μm particle size)(Advanced Chromatography Technologies Ltd, Aberdeen, Scotland). The analytes and the internal standard were ionized by electrospray in the positive ion mode and detected by multiple reaction monitoring (MRM) using the transitions listed in Table 1.

Structure (SMILES)	percentage of animals protected against psychomotor seizures (CF-1 mice) [%]	protective activity against seizures in the 6 Hz psychomotor seizure assay (CF-1 mice; summary statement)	Brain concentration [1]	Plasma concentration [1]
CCNC(C)Cc1cccc(C(F)(F)F)c1 (racemic) [(rac)-fenfluramine, (R/S)—N-ethyl-1-(3-(trifluoromethyl)phenyl)propan-2-amine]	37.5	exhibited protective activity against seizures	146.5 μM and 33870 ng/g	10.74 μM and 2484 ng/g
CCN[C@H](C)Cc1cccc(C(F)(F)F)c1 [(R)-fenfluramine, (R)—N-ethyl-1-(3-(trifluoromethyl)phenyl)propan-2-amine]	31.3		193.7 μM and 44797 ng/g	15.02 μM and 3474 ng/g
